Measured values as given in US11643417B2, “Tetrahydrobenzofurodiazepinone compound and pharmaceutical use thereof” (priority 2020, dated 2023).

These compounds were tested against human Pim-1 (Homo sapiens (Human), UniProt P11309) (assay: biochemical). Settings: Ki converted from IC50; purified human Pim-1, Pim2tide substrate, ADP-Glo; read-out: hPim1 Ki.
Assay type: biochemical
Experimental: The human Pim-1 inhibitory activity of the test compounds was evaluated as follows.
(1) Purification of Human Pim-1
DNA fragment in which a His-Tag sequence and a translation termination sequence are added to the 3′-end of human Pim-1 translation sequence was amplified by PCR (Polymerase Chain Reaction), using human Pim-1 gene-inserted plasmid DNA (Kazusa DNA Laboratory, model number FXC11400) as a template. The amplified DNA fragment was fused with pGEx-6P-1 (GE Healthcare Japan, model number 27-4597-1) digested with BamHI and EcoRI using In-Fusion HD Cloning Kit (Takara Bio, model number 639649). […] The base sequence of Pim-1 cloned into vector was determined by Dye Terminator method using BigDye Terminator v3.1 Cycle Sequencing Kit (Applied Biosystems, model number 4337456). […] Escherichia coli BL21 (DE3) (Merck KGaA, model number 69449-4) transformed with human Pim-1-expressed plasmid DNA was cultured in 2×YT medium (Becton Dickinson, model number 2404020) at 30° C., until the optical concentration at 620 nm (OD620) reached 0.6, and then cultured overnight at 20° C. in the presence of 0.5 mmol/L isopropyl b-D-1-thiogalactopyranoside. After the completion of so the culture, the cells were collected and suspended in Homogenate Buffer (50 mmol/L Tris-HCl (pH 7.5), 500 mmol/L NaCl, 1% Tween20, complete, EDTA-free (Roche, model number 1873580)), and the suspended cells were lysed by passing through a microfluidizer M-110H (Mizuho Kogyo Co., Ltd.). The lysate was centrifuged at 10,100×g for 10 minutes, 4° C., and the supernatant was filtered through MILLEX-HV Filter (0.45 μm) (Millipore, SLHV033RS) to remove the cell residues. The filtrate was loaded onto complete His-Tag Purification Resin (Roche Diagnostics, model number 05 893 682 0.01). The column was washed with Equilibration Buffer-1 (50 mmol/L Tris-HCl (pH 7.5), 500 mmol/L NaCl, 1% Tween 20) containing 5 mmol/L Imidazole, followed by Equilibration Buffer-1 containing 50 mmol/L Imidazole, the human Pim-1 to which GST-Tag derived from pGEx-6P-1 was eluted with Equilibration Buffer-1 containing 150 mmol/L imidazole. […] The protease reaction was carried out by stirring overnight at 4° C., and the human Pim-1 in which the GST-Tag sequence was cleaved was eluted. The eluate was loaded onto a gel filtration column (Superdex-200 […] (GE Healthcare, model number 17-5175-01)) equilibrated with Equilibration Buffer-3 (50 mmol/L Tris-HCl (pH 7.5), 500 mmol/L NaCl, 0.05% Tween20, 0.5 mmol/L EDTA, 2 mmol/L DTT, 10% Glycerol), and eluted. The eluate was used as a human Pim-1 purified fraction.
The protein concentration of the human Pim-1 purified fraction was measured with Pierce 660 nm Protein Assay Reagent (Thermo Fisher Scientific, model number 22660). The purified fraction was rapidly frozen in liquid nitrogen, and then stored at −80° C. The His-Tag-added human Pim-1 was detected by Western blotting using a mouse anti-His monoclonal antibody (WAKO, model number 011-23091).
(2) Evaluation of Human Pim-1 Inhibitory Activity
The calculation of the Pim-1 inhibitory activity of the compound was performed using the following solution according to the protocol attached to ADP-Glo Kinase Assay (cat. V9102, Promega). The purified enzyme of human Pim-1 described above was used.
(i) Preparation of Solution
The kinase buffer solution (50 mmol/L HEPES (pH 7.5), 5 mmol/L MgCl2, 1 mmol/L DTT, 0.05% BSA) was prepared by dissolving HEPES (Jena Bioscience), MgCl2 (Sigma-Aldrich), DTT (Sigma-Aldrich) and BSA (Sigma-Aldrich) in purified water.
The ATP solution (288 μmol/L) was prepared by dissolving 100 mmol/L ATP (Promega) in the kinase buffer solution.

Sequence of human Pim-1 (P11309 whole entry): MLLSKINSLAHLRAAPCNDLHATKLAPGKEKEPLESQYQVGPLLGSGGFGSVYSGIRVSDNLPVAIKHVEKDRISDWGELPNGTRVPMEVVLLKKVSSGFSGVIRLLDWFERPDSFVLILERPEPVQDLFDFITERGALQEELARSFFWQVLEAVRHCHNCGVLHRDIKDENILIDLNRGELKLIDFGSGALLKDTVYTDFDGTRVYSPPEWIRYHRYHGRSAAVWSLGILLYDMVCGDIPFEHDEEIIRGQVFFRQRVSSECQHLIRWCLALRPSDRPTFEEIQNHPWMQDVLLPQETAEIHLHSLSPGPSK

Structure (SMILES) | Ki [nM]
O=C1CCC(C(F)(F)CN2CCNC(=O)c3oc4ccc(C(F)(F)F)cc4c32)CC1 [Example 166] | 0.189
CC(C)(O)C1(O)CCOC(C(F)(F)CN2CCNC(=O)c3oc4ccc(C(F)(F)F)cc4c32)C1 (stereo not shown) [Example 30] | 0.0577
O=C1NCCN(CC(F)(F)C2CCC(O)CC2)c2c1oc1ccc(C(F)(F)F)cc21 (stereo not shown) [Example 107, 1-(2,2-difluoro-2-(4-hydroxycyclohexyl)ethyl)-9-(trifluoromethyl)-1,2,3,4-tetrahydro-5H-benzofuro[3,2-e] [1,4]diazepin-5-one] | 0.0862
CS(=O)(=O)C[C@H]1CO[C@H](CCN2CCNC(=O)c3oc4ccc(C(F)(F)F)cc4c32)CO1 (racemic) [Example 130] | 1.16
N#CC1(CCO)CCOC(C(F)(F)CN2CCNC(=O)c3oc4ccc(C(F)(F)F)cc4c32)C1 (stereo not shown) [Example 33] | 0.0793
O=C1NCCN(CCC2CC3CCC(C2)O3)c2c1oc1ccc(C(F)(F)F)cc21 (stereo not shown) [Example 81] | 1.11
O=C1NC2(CC2)CN(CC[C@H]2CO[C@@H](CO)CO2)c2c1oc1ccc(C(F)(F)F)cc21 [Example 154] | 0.302
O=C1NC2(CC2)CN(CC[C@H]2CO[C@H](CO)CO2)c2c1oc1ccc(C(F)(F)F)cc21 [Example 155] | 0.221
O=C1NCCN(CCC2COCC(CF)O2)c2c1oc1ccc(C(F)(F)F)cc21 (racemic) [Example 135] | 0.66
C[C@@H]1CN(CC[C@H]2CC[C@](O)(CO)CC2)c2c(oc3ccc(C(F)(F)F)cc23)C(=O)N1 [Example 2-07] | 0.136
O=C1NCCN(CC(F)(F)C2CC(O)CCC2(F)F)c2c1oc1ccc(C(F)(F)F)cc21 (stereo not shown) [Example 62] | 0.0461
O=C1NC2(CC2)CN(CC[C@@H]2CO[C@H](CO)CO2)c2c1oc1ccc(C(F)(F)F)cc21 [Example 153] | 0.302
CS(=O)(=O)C[C@H]1CO[C@H](CCN2CC3(CC3)NC(=O)c3oc4ccc(C(F)(F)F)cc4c32)CO1 [Example 161] | 0.188
O=C1NCCN(CC(F)(F)C2CC3(CCC2(F)F)OCCO3)c2c1oc1ccc(C(F)(F)F)cc21 (racemic) [Example 55] | 0.115
CC1(O)CCC(CCN2CC3(CC3)NC(=O)c3oc4ccc(C(F)(F)F)cc4c32)CC1 (single isomer, unassigned) [Example 127] | 0.0532
C[C@H]1CN(CC[C@H]2CC[C@](O)(CO)CC2)c2c(oc3ccc(C(F)(F)F)cc23)C(=O)N1 [Example 2-06] | 0.074
O=C1NCCN(CC[C@H]2CO[C@@H](CO)CO2)c2c1oc1ccc(C(F)(F)F)cc21 [Example 42] | 0.567
O=C1NCCN(CCC2COCC(CF)O2)c2c1oc1ccc(C(F)(F)F)cc21 (racemic) [Example 134] | 0.753
CC1(O)CCC(C(F)(F)CN2CCNC(=O)c3oc4ccc(C(F)(F)F)cc4c32)CC1 (single isomer, unassigned) [Example 147] | 0.213
COCC1(O)CCC(CCN2CCNC(=O)c3oc4ccc(C(F)(F)F)cc4c32)CC1 (stereo not shown) [Example 112] | 1.03
O=C1NCCN(CCC2CCC(C(=O)O)CC2)c2c1oc1ccc(C(F)(F)F)cc21 (stereo not shown) [Example 86] | 4.06
CC1(C)OCC(C(F)(F)CN2CCNC(=O)c3oc4ccc(C(F)(F)F)cc4c32)CO1 [Example 71] | 1.3

Structure (SMILES) | Ki [nM]
O=C1NCCN(CC(F)(F)C2CC(O)(CO)CCO2)c2c1oc1ccc(C(F)(F)F)cc21 (stereo not shown) [Example 13] | 0.021
N#CC1(CCO)CCOC(CCN2CCNC(=O)c3oc4ccc(C(F)(F)F)cc4c32)C1 (racemic) [Example 7] | 0.468
O=C1NCCN(CCC2CCS(=O)(=O)CC2)c2c1oc1ccc(C(F)(F)F)cc21 [Example 87] | 1.97
O=C1NCCN(CC(F)(F)C2CC(O)C2)c2c1oc1ccc(C(F)(F)F)cc21 (stereo not shown) [Example 151] | 0.957
O=C1NCCN(CC(F)(F)C2CC(O)(C(F)F)CCO2)c2c1oc1ccc(C(F)(F)F)cc21 (single isomer, unassigned) [Example 53] | 0.0921
O=C1NCCN(CC(F)(F)C2CCC(CO)CC2)c2c1oc1ccc(C(F)(F)F)cc21 (stereo not shown) [Example 138] | 0.0151
O=C1NC2(CC2)CN(CC[C@@H]2CO[C@H](CF)CO2)c2c1oc1ccc(C(F)(F)F)cc21 [Example 156] | 0.0103
CC1COCC(CCN2CCNC(=O)c3oc4ccc(C(F)(F)F)cc4c32)O1 (racemic) [Example 114] | 0.708
CS(=O)(=O)CC1(O)CCC(CCN2CCNC(=O)c3oc4ccc(C(F)(F)F)cc4c32)CC1 (stereo not shown) [Example 122] | 0.532
NC(=O)C1CCC(CCN2CCNC(=O)c3oc4ccc(C(F)(F)F)cc4c32)CC1 (stereo not shown) [Example 104] | 0.819
COC[C@]1(OC)CC[C@@H](CCN2CCNC(=O)c3oc4ccc(C(F)(F)F)cc4c32)CC1 [Example 2-04] | 1.25
C[C@H]1CO[C@@H](CCN2CCNC(=O)c3oc4ccc(C(F)(F)F)cc4c32)CO1 [Example 43] | 0.741
O=C1NCCN(CC2(F)COC2)c2c1oc1ccc(C(F)(F)F)cc21 [Example 16] | 10.9
CS(=O)(=O)CC1COCC(CCN2CCNC(=O)c3oc4ccc(C(F)(F)F)cc4c32)O1 (racemic) [Example 136] | 16
N#CC[C@H]1CO[C@H](CCN2CCNC(=O)c3oc4ccc(C(F)(F)F)cc4c32)CO1 (racemic) [Example 129] | 1.18
O=C1NCCN(CCC2CCC(C3(O)CC3)CC2)c2c1oc1ccc(C(F)(F)F)cc21 (stereo not shown) [Example 110] | 0.133
N#CC1CCOC(CCN2CCNC(=O)c3oc4ccc(C(F)(F)F)cc4c32)C1 (stereo not shown) [Example 2] | 1.12
CN1CCN(CC(F)(F)C2CC(O)(CO)CCO2)c2c(oc3ccc(C(F)(F)F)cc23)C1=O (stereo not shown) [Example 21] | 0.33
O=C1NCCN(CCC2CCC(O)(C(F)(F)CO)CC2)c2c1oc1ccc(C(F)(F)F)cc21 (single isomer, unassigned) [Example 119] | 0.144
O=C1NCCN(CC(F)(F)[C@H]2CC[C@H](O)CC2)c2c1oc1ccc(C(F)(F)F)cc21 [Example 165] | 0.104
CC1(O)CCOC(C(F)(F)CN2CCNC(=O)c3oc4ccc(C(F)(F)F)cc4c32)C1 (stereo not shown) [Example 67, 1-(2,2-difluoro-2-(4-hydroxy-4-methyltetrahydro-2H-pyran-2-yl)ethyl)-9-(trifluoromethyl)-1,2,3,4-tetrahydro-5H-benzofuro[3,2-e][1,4]diazepin-5-one] | 0.242
N#CCC1(O)CCC(CCN2CCNC(=O)c3oc4ccc(C(F)(F)F)cc4c32)CC1 (stereo not shown) [Example 121] | 0.705

Same assay, conditions: hPim1 Ki (nM), Ki converted from IC50; purified human Pim-1, Pim2tide substrate, ADP-Glo

Structure (SMILES) | Ki [nM]
O=C1NCCN(CC(F)(F)C2CC(CO)CCO2)c2c1oc1ccc(C(F)(F)F)cc21 (single isomer, unassigned) [Example 15] | 0.0289
CC1(O)CCOC(C(F)(F)CN2CCNC(=O)c3oc4ccc(C(F)(F)F)cc4c32)C1 (racemic) [Example 11, 1-(2,2-difluoro-2-(4-hydroxy-4-methyltetrahydro-2H-pyran-2-yl)ethyl)-9-(trifluoromethyl)-1,2,3,4-tetrahydro-5H-benzofuro[3,2-e][1,4]diazepin-5-one] | 0.0596
O=C1NCCN(CC(F)(F)C2CC(CO)CCO2)c2c1oc1ccc(C(F)(F)F)cc21 (single isomer, unassigned) [Example 14] | 0.0334
O=C1NC2(CC2)CN(CCC2CCC(O)(CO)CC2)c2c1oc1ccc(C(F)(F)F)cc21 (stereo not shown) [Example 116] | 0.0092
[2H]C1(O)CCC(CCN2CCNC(=O)c3oc4ccc(C(F)(F)F)cc4c32)CC1 (relative stereo) [Example 91] | 0.198
